Read-outs that look alike come from different tables or passages of the source.
System: NCI-H661
Assay: Pemetrexed cytotoxicity test upon suppression of expression of MYT1
Format: cell-based
Conditions: Homo sapiens, NCI-H661 (RB1 wild-type), 7 days
Experimental: Thereafter, the plates were shaken to transfect each siRNA at a final concentration of 10 nM.
The −Log 2 value of fold change of IC50 and the maximum value of Bliss score, which are indexes of the combination effect, were calculated by comparing with the actually obtained cell survival curve, and described in Table 6 (see Non Patent Literature 9).

Q: Which results are given for Nc1nc2[nH]cc(CCc3ccc(C(=O)N[C@@H](CCC(=O)O)C(=O)O)cc3)c2c(=O)[nH]1 [pemetrexed]?
A: IC50 (read-out: IC50 of pemetrexed, MYT1 #16, MYT1 siRNA #16 10 nM): 45.7 nM; IC50 (read-out: IC50 of pemetrexed, MYT1 #18, MYT1 siRNA #18 10 nM): 129 nM; IC50 (read-out: IC50 of pemetrexed, NT, negative control siRNA 10 nM): 315 nM
